Experimental data reported in patent US20160030373A1, “2-AAA as a Biomarker and Therapeutic Agent for Diabetes” (THE GENERAL HOSPITAL CORPORATION, priority 2013, published 2016).

Tests used:
[1] = tested on: C57B/L6 male mice; experiment: Insulin tolerance test (ITT, acute insulin challenge) after 2-AAA treatment; format: in vivo; conditions: ITT 0.00075 U insulin/g; SCD and HFD
Method: FIGS. 6A and 6B are graphs depicting plasma glucose levels 2-AAA mice fed either a standard chow (left) or high-fat diet (right) measured following acute insulin challenge (n=15 per condition).
(§1) Fasting insulin levels in mice were measured by an ELISA kit (Crystal Chem Inc., Downers Grove Ill.). After 5 weeks of 2-AAA treatment, and following a 6-hour fast, each group of mice was administered an intra-peritoneal glucose tolerance test (IPGTT; 1.5 mg/g of body weight; 75 mg/mL of glucose solution) or an insulin tolerance test (ITT; 0.00075 U of insulin/g of body weight, 0.15 U/ml insulin solution, Sigma-Aldrich, St. Louis, Mo.). For the IPGTT, venous blood samples were obtained from the tail vein immediately prior to glucose injection and then serially at 30, 60, and 120 minutes following the injection. For the ITT, venous blood samples were obtained from the tail vein immediately prior to the insulin injection and then serially at 15, 30, 45 and 60 minutes following the injection.
Additional studies were performed using acute physiologic challenges, including acute glucose and insulin administration. As expected, mice fed a HFD had more pronounced glucose excursions following the glucose challenge (FIG. 4). In mice fed both the SCD and HFD for 5 weeks or greater, peak glucose concentrations following the glucose challenge were lower in the 2-AAA treated mice. […]

[2] = Food intake and weight in control and 2-AAA treated mice; format: in vivo; conditions: 2-AAA 500 mg/kg/day via drinking water, up to 5 weeks
Description: FIGS. 3A and 3B are graphs depicting serial weights and food intake in control and 2-AAA treated animals.
(§2) Intervention studies in mice were completed to examine whether 2-AAA might play a contributory or compensatory role in glucose homeostasis by performing 2-AAA. For this study, four independent cohorts of 24 C57B/L6 male mice entered the study protocol at 6 weeks of age. Two cohorts received the standard chow diet and two cohorts received a high-fat diet. Half of the mice assigned to each diet received 2-AAA (500 mg/kg/day equivalent to a starting dose of 12.03±0.30 mM) via the drinking water for up to five weeks. Pre-weighed food and water were administered to each cage. Food and water intake was monitored weekly. Mice supplemented with 2-AAA had 33% higher plasma levels of this metabolite by one week of treatment (p=0.018).
Fasting plasma glucose levels were measured weekly in mice fed either a standard chow (left) or high-fat diet (right) beginning at 6 weeks of age, with simultaneous 2-AAA treatment via drinking water (500/mg/kg/day) or water alone for the subsequent 5 weeks. (n=24 mice per condition) (*p<0.05; **p<0.01; ***p<0.001). For mice on the SCD, fasting glucose levels were 109.5±3.8 mg/dL for the 2-aminoadipic treated animals as compared to 124.5±4.9 mg/dL, for the untreated controls after 5 weeks (p<0.01, FIG. 2A). […]

[3] = Plasma 2-AAA level in mice supplemented with 2-AAA; format: in vivo; conditions: 500 mg/kg/day via drinking water; by one week of treatment; p=0.018
Method: as §2
For the perigonadal adipose tissue, metabolites were first extracted by mixing harvested tissues with 6 μL per 1 mg of adipose tissue of a MeOH:Chloroform solution (2:1 v/v). The extracted adipose tissues were then homogenized for 4 minutes at 25 Hz in a TissueLyser II. […] A calibration curve using 2-AAA d3 (C/D/N Isotopes Inc, Quebec Canada) was generated for absolute quantitation of 2-AAA in plasma and tissue samples. […] An isotopically labeled standard was used to facilitate absolute quantitation of the metabolite of interest in the setting of the different biological matrices.

[4] = tested on: Islets from male C57BL/6J mice; experiment: Insulin secretion from isolated mouse islets; format: cell-based; conditions: 30 μM 2-AAA for 6 hours; 2.5 mmol/l glucose; normalized to islet content
Method: FIG. 9 is a graph depicting insulin secretion from islets isolated from male C57BL/6J mice following incubation with 30 μM 2-AAA for 6 hours. Insulin was assayed using the Meso Scale Discovery multi array assay system for mouse/rat total insulin (Gaithersburg, Md., USA). Secretion was normalized to islet content. (n=3, p=0.016)
Islets from male C57BL/6J mice were isolated by collagenase digestion of the pancreas, purified by Ficoll density gradient and then handpicked. Mouse islets were cultured for 24 hours as previously described (26). For insulin secretion experiments, 15 islets were placed in each microcentrifuge tube and incubated in islet secretion buffer containing (in mmol/1) 120 NaCl, 5 KCl, 1 CaCl2, 1.2 MgCl2, 24 NaHCO3, 10 HEPES, and 2.5 glucose, bubbled with 95% O2/5% CO2 and supplemented with 0.5% (wt/vol) BSA. Experiments were performed by incubating islets in 1 ml of secretion buffer in the presence or absence of 30 μM 2-AAA for 6 hours at 37° C., 5% CO2. Insulin was assayed using the Meso Scale Discovery multi array assay system for mouse/rat total insulin (Gaithersburg, Md., USA). Secretion was normalized to islet content.

[5] = tested on: C57B/L6 male mice; experiment: Fasting plasma insulin levels (ELISA) after 2-AAA treatment; format: in vivo; conditions: after 5 weeks of 2-AAA; increase seen in HFD animals
Method: FIG. 5 is a graph depicting fasting plasma insulin levels in 2-AAA mice fed either a standard chow (left) or high-fat diet (right) measured following completion of the 2-AAA treatment (5 weeks) in the mice on both diets (n=12 mice per condition) (*p<0.05).
as §1
(§3) Additional studies were performed using acute physiologic challenges, including acute glucose and insulin administration. As expected, mice fed a HFD had more pronounced glucose excursions following the glucose challenge (FIG. 4). […]

[6] = tested on: Beta TC6 (BTC6) cells; experiment: Insulin secretion by BTC6 pancreatic beta cell line; format: cell-based, mouse; conditions: for insulin secretion: 100 μM, 2.5 mM glucose
Method: FIG. 8A is a graph depicting percent insulin secretion by BTC6 cells following incubation with 2-AAA at concentrations ranging from 0 to 100 μM for 0.5 to 72 hours.
FIG. 8B is a graph depicting the effects of 2-AAA (30 μM), clonidine (100 μM) and phentolamine (100 μM) on insulin secretion by BTC6 cells.
To investigate the connection between 2-AAA and the pancreas, insulin production by a pancreatic beta cell line that was acutely and chronically exposed to 2-AAA. Beta TC6 (BTC6) cells, an established model to examine insulin secretion (mouse insulinoma beta-TC-6 (ATCC® CRL-11506™) from ATCC (Manassas, Va.)) (27-29), were used at passage number 4-7, grown in DMEM (ATCC 2002-30), 15% FBS, with penicillin/streptomycin (100 IU/ml/100 μg/ml). Cells were plated on 24 well collagen plates at 40,000 cells per well, incubated with 2-AAA at varying concentrations ranging from 0 to 100 μM for 0 to 72 hours to assess whether this compound increases insulin secretion in a time and/or dose dependent fashion. On the day of experimentation, the cells were washed with PBS and the media was changed to DMEM without FBS or glucose to which 0.1% BSA was added. After 1 hour of incubation, this media was changed to serum free media containing 2.5 mM of glucose. Insulin production was measured in the supernatant after 1 additional hour of incubation. To assess the time response relationship, 2-AAA was added to the cells after plating on collagen and incubated for 0.5, 2, 6, and 72 hours.

[7] = tested on: C57B/L6 male mice; experiment: Fasting plasma glucose in mice given 2-AAA chronically via drinking water; format: in vivo; conditions: for fasting glucose levels: 2-AAA 500 mg/kg/day via drinking water, mean ± SEM
Method: FIGS. 2A and B are graphs depicting fasting plasma glucose levels in 2-AAA in mice fed either a standard chow (2A) or high-fat diet (2B). Fasting plasma glucose levels were measured weekly in mice fed either a standard chow (left) or high-fat diet (right) beginning at 6 weeks of age, with simultaneous 2-AAA treatment via drinking water (500/mg/kg/day) or water alone for the subsequent 5 weeks. (n=24 mice per condition) (*p<0.05; **p<0.01; ***p<0.001).
The effect of a Western-style diet on circulating 2-AAA levels in mice was examined. C57BL/6 male mice (Jackson Laboratories, Bar Harbor, Me.) were housed in separate cages with free access to food and water. Mice were fed a standard chow diet containing 22.5% protein, 52% carbohydrates, 6% fat, 6% ash and 4% fiber (Prolab Isopro RMH 3000, Brentwood, Mo.) or a high-fat diet containing 20 kcal % protein, 20 kcal % carbohydrate and 60 kcal % fat (DIO formula, D12492, Research Diets, Inc, New Brunswick, N.J.) as indicated. The total energy equivalent was 3.46 kcal/gm for the standard chow diet and 5.24 kcal/gm for the high fat diet.
as §2
Fasting plasma glucose levels were measured weekly in mice fed either a standard chow (left) or high-fat diet (right) beginning at 6 weeks of age, with simultaneous 2-AAA treatment via drinking water (500/mg/kg/day) or water alone for the subsequent 5 weeks. […]

[8] = tested on: C57B/L6 male mice; experiment: Intra-peritoneal glucose tolerance test (IPGTT) after chronic 2-AAA treatment; format: in vivo; conditions: IPGTT 1.5 mg/g; mice fed SCD and HFD for 5 weeks or greater
Method: FIG. 4 is a graph depicting plasma glucose levels in 2-AAA mice fed either a standard chow (left) or high-fat diet (right) following IPGTT challenge after completion of the 2-AAA chronic treatment in mice fed either the standard chow or high-fat diet. (n=12 mice per condition) (*p<0.05; **p<0.01).
as §1, §3

N[C@H](CCCC(=O)O)C(=O)O (stereo in doubt) [2-AAA, 2-aminoadipic acid]
effect on rate of decline in glucose levels following acute insulin challenge [1]: no effect | differences in food intake or weight between treated and control mice [2]: no significant differences | increase in plasma levels of 2-AAA versus unsupplemented mice [3]: 33% | insulin release from islets [4]: release insulin | fasting insulin levels versus untreated animals [5]: further augmented | insulin secretion from BTC6 cells ([6]; 2-AAA 0 to 100 μM for 0.5 to 72 hours): induced insulin secretion from BTC6 cells in a dose and time dependent fashion | incubation time at which augmented insulin secretion was evident ([6]; BTC6 cells): at least 6 hours | peak insulin secretion relative to that of phentolamine (172±8% of control) ([6]; BTC6 cells, 2-AAA 30 μM vs phentolamine 100 μM): comparable | fasting glucose levels in treated mice versus water alone ([7]; both diets, p<0.001 by 2-way ANOVA after 5 weeks): consistently lower | fasting glucose levels ([7]; mice on high-fat diet (HFD), at 5 weeks): 134.5 ± 5.9 mg/dL | fasting glucose levels ([7]; mice on standard chow diet (SCD), after 5 weeks): 109.5 ± 3.8 mg/dL | peak glucose concentrations following the glucose challenge versus control [8]: lower

Clc1cccc(Cl)c1N=C1NCCN1 [clonidine, reference compound]
insulin secretion ([6]; BTC6 cells): 60±3 % of control

Cc1ccc(N(CC2=NCCN2)c2cccc(O)c2)cc1 [phentolamine, reference compound]
insulin secretion ([6]; BTC6 cells): 172±8 % of control
